Here are results for nine molecules from BindingDB's records for PubMed 14633714 (Abbott Laboratories, 2003).

In general, pIC50 refers to the negative decadic logarithm of the IC50, by convention in mol/L.

pIC50: −log10 of the molar value.

This assay concerns the target Methionine aminopeptidase 1 (Homo sapiens, UniProt P53582). Briefly: MetAP Enzyme Activity Assay. The note with it: pH 7.4; 22 °C. The procedure: A coupled enzyme chromogenic assay was developed to measure methionine aminopeptidase activity by monitoring the production of free methionine with L-amino acid oxidase and horseradish peroxidase. Assays were performed in 96-well microtiter plates. The reactions were carried out at room temperature, and absorbance at 450 nm (A450) was measured every 20 s over a period of 20 min using an automatic plate reader (Molecular Devices, CA). The rate in mOD/min, calculated for each well, was converted to nM methionine releases per minute per nM MetAP in the reaction.
Turning to `CCSCC[C@@H](N)[C@H](O)C(=O)N[C@@H](C)c1cccc2ccccc12` [bestatin-type inhibitor, 4], the pIC50 is 6.43.

Take `CC(C)CSC[C@@H](N)[C@H](O)C(=O)N[C@@H](C)c1cccc2ccccc12`: the pIC50 is 5.66. Against the preceding molecule, the pIC50 is 0.77 log units lower.

Regarding `CC(C)SCC[C@@H](N)[C@H](O)C(=O)N[C@@H](C)c1cccc2ccccc12`, the negative-log IC50 (pIC50) is 4.92.

The molecule `CC(C)CSC[C@@H](N)[C@H](O)C(=O)NNC(=O)c1cccc(Cl)c1` showed a pIC50 of 5.09. The pIC50 values of the last two molecules are within 0.2 log units of each other.

`CC(C)SCC[C@@H](N)[C@H](O)C(=O)NNC(=O)c1cccc(Cl)c1` [N'-[(2S,3R)-3-amino-2-hydroxy-5-(propan-2-ylsulfanyl)pentanoyl]-3-chlorobenzohydrazide]: the negative-log IC50 (pIC50) was 4.24.

Consider `CCOC(=O)[C@H](C)NC(=O)[C@@H](O)[C@H](N)CCSCC` [ethyl (2S)-2-[(2S,3R)-3-amino-5-(ethylsulfanyl)-2-hydroxypentanamido]propanoate], for which the negative-log IC50 (pIC50) is 4.16.

`CCSCC[C@@H](N)[C@H](O)C(=O)NNC(=O)c1cccc(Cl)c1` [N'-[(2S,3R)-3-amino-5-(ethylsulfanyl)-2-hydroxypentanoyl]-3-chlorobenzohydrazide] showed a pIC50 of 4.70.

As to `CCOC(=O)[C@H](C)NC(=O)[C@@H](O)[C@H](N)CCSC` [ethyl (2S)-2-[(2S,3R)-3-amino-2-hydroxy-5-(methylsulfanyl)pentanamido]propanoate], the pIC50 is 4.20. This pIC50 lies 0.50 log units lower than the previous one.

`CCOC(=O)[C@H](C)NC(=O)[C@@H](O)[C@H](N)CSCC(C)C` [ethyl (2S)-2-[(2S,3S)-3-amino-2-hydroxy-4-[(2-methylpropyl)sulfanyl]butanamido]propanoate] gave a pIC50 of 4.18.
